Assay results from patent US5470883A (priority 1994, dated 1995).
Where a name gives a salt, the structure may show the parent alone. Read-outs that look alike come from different tables or passages of the source.

Columns and labels:
[1] = tested on: epinephrine vasoconstriction, central artery of the rabbit ear; assay: Transcutaneous oxygen monitor assessment of distal peripheral oxygen tension after epinephrine injection around the central artery of the rabbit ear; assay type: in vivo, New Zealand adult white rabbits; settings: for effect of pretreatment on epinephrine-induced fall in peripheral blood flow / vasoconstriction: pretreatment two days, then epinephrine, estradiol 0.1 mg/kg/day, tamoxifen 2.0 mg/kg/day
Description: A study utilizing 18 New Zealand adult white rabbits was performed. […] This was injected through a 27 gauge needle directly surrounding the central artery of the rabbit ear. Distally peripheral tissue oxygen tension was assessed utilizing a precalibrated transcutaneous oxygen monitor. Measurements were taken prior to injection to maintenance of a steady state. If a steady state was not reached the experiment was discontinued and retried at a later time. Post-injection measurements were taken until the return to baseline levels or up to two hours post-injection. Measurements were taken at five minute intervals preinjection and at three minute intervals post-injection. Control injections utilized 0.1 cc. of intravenous saline solution.
In the second phase, six rabbits were used. The animals were pretreated with intravenous injections of estradiol (0.1 mg/kg/day) for two days.
In phase three, animals from the second group were treated with estradiol and tamoxifen was added (2.0 mg/kg/day) for two days after allowing three weeks for the original estradiol to wash out. Another group of six animals was pretreated with tamoxifen alone (2.0 mg/kg/day) for two days.

[2] = cited from earlier work
[3] = tested on: mammary carcinoma in rats induced by DMBA; settings: cited from earlier work
[4] = tested on: estrogen-dependent breast cancer cell cultures; settings: cited from earlier work
[5] = tested on: tumor cultures without estrogen receptors; settings: cited from earlier work
breast cancer = settings: cited from earlier work
[6] = humans; cited from earlier work
[7] = 100 to 200 times the recommended daily dose; cited from earlier work
perfused rat mesentary = settings: cited from earlier work
renal cortical necrosis = settings: induced by estrogen plus vasopression; cited from earlier work
[8] = mild to moderate renal failure; cited from earlier work
[9] = single oral dose approximately 0.3 mg/kg

With `CNC[C@H](O)c1ccc(O)c(O)c1` [epinephrine] the “decreased blood flow, % of the preinjection level” value ([1]; epinephrine 0.1 cc, 1:50,000) was 50% and the tissue necrosis ([1]; epinephrine 0.1 cc, 1:50,000) was “In no case was there any tissue necrosis”.
In the case of `C[C@]12CC[C@@H]3c4ccc(O)cc4CC[C@H]3[C@@H]1CC[C@@H]2O` [estradiol], the “effect of pretreatment on epinephrine-induced fall in peripheral blood flow / vasoconstriction” value [1] is reported as “statistically similar fall in the peripheral blood flow as compared to those animals treated with epinephrine alone”.
For `CC/C(=C(\c1ccccc1)c1ccc(OCCN(C)C)cc1)c1ccccc1` [tamoxifen citrate, (Z)2-[4-(1,2-diphenyl-1-butenyl)phenoxy]-N, N-dimethylethanamine 2-hydroxy-1,2,3-propranetricarboxylate (1:1)], the “effect of pretreatment on epinephrine-induced fall in peripheral blood flow / vasoconstriction” value [1] is listed as “completely reversed the vasoconstrictive effects of epinephrine”, the “effect of pretreatment on epinephrine-induced fall in peripheral blood flow / vasoconstriction” value ([1]; listed as tamoxifen (Nolvadex)) is listed as “completely inhibited” and the “unchanged drug and hydroxylated metabolites, share of total excreted” value ([2]; excreted mainly as conjugates) is listed as 30%. The distribution half life ([2]; human, in vivo) was 7 to 14 h, the elimination half-life ([2]; human, in vivo) was “greater than 7 days” and the excretion in urine ([2]; in vivo) was “only small amounts are excreted in the urine”. The metabolism ([2]; in vivo) was “metabolised in the liver”, the “absorption from the gastrointestinal tract” value ([2]; oral) was “well-absorbed from the gastrointestinal tract” and the “excretion of radioactivity in the feces” value ([2]; radiolabeled tamoxifen citrate, person) was “most of the radioactivity is slowly excreted in the feces with only small amounts appearing in the urine”. For the same compound, the initial half-life [2, 9] was 7 to 14 h, the “peak blood level of total radioactivity” value [2, 9] was 0.06-0.14 micrograms/mL and the “secondary peaks, time” value [2, 9] was “four”. For the same compound, the “time of peak blood level of total radioactivity” value [2, 9] was 4 to 7 h, the “frequency of tumor development” value ([3]; administered with DMBA) was “decreases the frequency of tumor development” and the “effect on DMBA-induced mammary carcinoma” value ([3]; rats) was “inhibit or reverse mammary carcinoma in rats”. For the same compound, the cell reproduction [4] was “inhibit cell reproduction”, the “effect in tumor cultures” value [5] was “no significant effect” and the “anti-tumor effect at higher dose” value (breast cancer; 40 mg per day, metastatic breast cancer to the lung) was “higher anti-tumor effect”. The “improvement at higher daily doses” value (breast cancer; 80 mg daily) was “have not generally resulted in greater improvement”, the delay of recurrence (breast cancer; following total mastectomy and axillary dissection or segmental mastectomy, axillary dissection, and breast radiation, axillary node-negative breast cancer) was “effective in delaying the reoccurence” and the delay of recurrence (breast cancer; following total mastectomy and axillary dissection, post-menopausal women) was “effective in delaying reoccurence”. The overdose cases [6] was “no cases of tamoxifen citrate overdose have been reported in humans”, the overdose toxicity [7] was “respiratory difficulties and convulsions” and the calcium antagonism (perfused rat mesentary) was “calcium antagonist in perfused rat mesentary”. For the same compound, the “effect on development of renal cortical necrosis” value (renal cortical necrosis) was “have an effect on the development of renal cortical necrosis” and the “dose adjustment in renal failure” value [8] was “dose adjustments are not needed in mild to moderate renal failure”.
